Structures can show the parent of a compound that is named as a salt.

Our source for the fold induction values is patent US8759535B2, “Substituted fused imidazole derivatives, pharmaceutical compositions, and methods of use thereof” (High Point Pharmaceuticals, LLC, priority 2010, dated 2014).

The test system of the first experiment is HMOX1. Nature of the experiment: HMOX1 Protein Assay (immunostaining of HO-1 in NHLF cells, GE InCell 1000). Conditions: Homo sapiens, fold change above DMSO treated cells, 3 μM compound (asterisk), 16 h. It counts as cell-based. In outline:
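NHLF cells seeded overnight in FGM-2, then exposed to compound or DMSO vehicle for 16 h, fixed, and immunostained for HO-1 with Hoechst nuclear counterstain; imaged on InCell 1000. Values are fold change over DMSO-treated cells, generally at 5 μM (0.8% DMSO), with asterisked entries at 3 μM.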
Usually fold induction stands for the ratio of treated to control signal. A high value points to a large rise in signal. `CN1CCN(C(=O)CNC(=O)c2ccc3c(c2)nc(Nc2nc4ccc(C(F)(F)F)cc4s2)n3C)CC1` [Example 427, 1-Methyl-2-(6-trifluoromethyl-benzothiazol-2-ylamino)-1H-benzoimidazole-5-carboxylic acid [2-(4-methyl-piperazin-1-yl)-2-oxo-ethyl]-amide] gave a fold induction at 3 µM of 17.

In turn, `Cn1c(Nc2nc3ccc(C(F)(F)F)cc3s2)nc2cc(C(=O)NCC(=O)N3CCC[C@@H](O)C3)ccc21` [Example 432, 1-Methyl-2-(6-trifluoromethyl-benzothiazol-2-ylamino)-1H-benzoimidazole-5-carboxylic acid [2-((R)-3-hydroxy-piperidin-1-yl)-2-oxo-ethyl]-amide] gave a fold induction at 3 µM of 27.3.

For `Cn1c(Nc2nc3ccc(OC(F)(F)F)cc3s2)nc2cc(C(=O)NCCN3CCS(=O)(=O)CC3)ccc21` [Example 342, 1-Methyl-2-(6-trifluoromethoxy-benzothiazol-2-ylamino)-1H-benzoimidazole-5-carboxylic acid [2-(1,1-dioxo-thiomorpholin-4-yl)-ethyl]-amide], the fold induction at 3 µM came to 36.8.

In turn, `CO[C@H]1CCCN(C(=O)CNC(=O)c2ccc3c(c2)nc(Nc2nc4ccc(Cl)cc4s2)n3C)C1` [Example 444, 2-(6-Chloro-benzothiazol-2-ylamino)-1-methyl-1H-benzoimidazole-5-carboxylic acid [2-((S)-3-methoxy-piperidin-1-yl)-2-oxo-ethyl]-amide] displayed a fold induction at 3 µM of 32.

In turn, `CCN(CC)CCCNC(=O)c1ccc2c(c1)nc(Nc1nc3ccc(C(F)(F)F)cc3s1)n2C` [Example 353, 1-Methyl-2-(6-trifluoromethyl-benzothiazol-2-ylamino)-1H-benzoimidazole-5-carboxylic acid (3-diethylamino-propyl)-amide] registered a fold induction at 3 µM of 23.

The same experiment, now with this note: Homo sapiens, fold change above DMSO treated cells, 5 μM compound, 16 h.
The molecule `CCn1c(Nc2nc3ccc(Cl)cc3s2)nc2cc(C(=O)NCCOC)ccc21` [Example 177, 2-(6-Chloro-benzothiazol-2-ylamino)-1-ethyl-1H-benzoimidazole-5-carboxylic acid (2-methoxy-ethyl)-amide] displayed a fold induction at 5 µM of 30.3.

In turn, `Cn1c(Nc2nc3ccc(OC(F)(F)F)cc3s2)nc2cc(C(=O)N[C@@H]3[C@@H](O)[C@H](O)[C@@H](CO)O[C@@H]3O)ccc21` [Example 283, 1-Methyl-2-(6-trifluoromethoxy-benzothiazol-2-ylamino)-1H-benzoimidazole-5-carboxylic acid ((2S,3R,4R,5S,6R)-2,4,5-trihydroxy-6-hydroxymethyl-tetrahydro-pyran-3-yl)-amide] showed a fold induction at 5 µM of 30.2.

Take `Cn1c(Nc2nc3ccc(OC(F)(F)F)cc3s2)nc2cc(C(=O)NC[C@H](O)CO)ccc21` [Example 280, 1-Methyl-2-(6-trifluoromethoxy-benzothiazol-2-ylamino)-1H-benzoimidazole-5-carboxylic acid ((S)-2,3-dihydroxy-propyl)-amide]: the fold induction at 5 µM amounted to 38.8.

For `Cn1c(Nc2nc3ccc(OC(F)(F)F)cc3s2)nc2cc(C(=O)NCCN)ccc21` [Example 104, 1-Methyl-2-(6-trifluoromethoxy-benzothiazol-2-ylamino)-1H-benzoimidazole-5-carboxylic acid (2-amino-ethyl)-amide hydrochloride], the fold induction at 5 µM stood at 16.3.

Regarding `CN(C)C(=O)C1(NC(=O)c2ccc3c(c2)nc(Nc2nc4ccc(OC(F)(F)F)cc4s2)n3C)CC1` [Example 150, 1-Methyl-2-(6-trifluoromethoxy-benzothiazol-2-ylamino)-1H-benzimidazole-5-carboxylic acid (1-dimethylcarbamoyl-cyclopropyl)-amide], the fold induction at 5 µM is 41.6.

For `Cn1c(Nc2nc3ccc(OC(F)(F)F)cc3s2)nc2cc(C(=O)NCC(F)(F)F)ccc21` [Example 16, 1-Methyl-2-(6-trifluoromethoxy-benzothiazol-2-ylamino)-1H-benzoimidazole-5-carboxylic acid (2,2,2-trifluoro-ethyl)-amide], the fold induction at 5 µM was found to be 30.

Take `COCCn1c(Nc2nc3ccc(OC(F)(F)F)cc3s2)nc2cc(C(=O)NCC(=O)N3CCN(C)CC3)ccc21` [Example 189, 1-(2-Methoxy-ethyl)-2-(6-trifluoromethoxy-benzothiazol-2-ylamino)-1H-benzoimidazole-5-carboxylic acid [2-(4-methyl-piperazin-1-yl)-2-oxo-ethyl]-amide]: the fold induction at 5 µM worked out at 24.6.

With `C[C@@H](O)CNC(=O)CNC(=O)c1ccc2c(c1)nc(Nc1nc3ccc(Cl)cc3s1)n2C` [Example 382, 2-(6-Chloro-benzothiazol-2-ylamino)-1-methyl-1H-benzoimidazole-5-carboxylic acid [((R)-2-hydroxy-propylcarbamoyl)-methyl]-amide], the fold induction at 5 µM is 20.6.

Molecule `COCCn1c(Nc2nc3ccc(Cl)cc3s2)nc2cc(C(=O)NC3CCN(CCO)CC3)ccc21` [Example 301, 2-(6-Chloro-benzothiazol-2-ylamino)-1-(2-methoxy-ethyl)-1H-benzoimidazole-5-carboxylic acid [1-(2-hydroxy-ethyl)-piperidin-4-yl]-amide] displayed a fold induction at 5 µM of 27.8.

`Cn1c(Nc2nc3ccc(Cl)cc3s2)nc2cc(C(=O)NCC(=O)N3CCS(=O)(=O)CC3)ccc21` [Example 424, 2-(6-Chloro-benzothiazol-2-ylamino)-1-methyl-1H-benzoimidazole-5-carboxylic acid [2-(1,1-dioxo-thiomorpholin-4-yl)-2-oxo-ethyl]-amide] showed a fold induction at 5 µM of 24.9.

With `Cn1c(Nc2nc3ccc(OC(F)(F)F)cc3s2)nc2cc(C(=O)NC3CCN(C(=O)OC(C)(C)C)CC3)ccc21` [Example 92, 4-{[1-Methyl-2-(6-trifluoromethoxy-benzothiazol-2-ylamino)-1H-benzoimidazole-5-carbonyl]-amino}-piperidine-1-carboxylic acid tert-butyl ester], the fold induction at 5 µM was determined as 3.4.

`COCCn1c(Nc2nc3ccc(Cl)cc3s2)nc2cc(C(=O)NCC(=O)N3CC[C@H](O)C3)ccc21` [Example 405, 2-(6-Chloro-benzothiazol-2-ylamino)-1-(2-methoxy-ethyl)-1H-benzoimidazole-5-carboxylic acid [2-((S)-3-hydroxy-pyrrolidin-1-yl)-2-oxo-ethyl]-amide] registered a fold induction at 5 µM of 21.4.

Turning to `COCCn1c(Nc2nc3ccc(Cl)cc3s2)nc2cc(C(=O)NCC(=O)N(C)C)ccc21` [Example 366, 2-(6-Chloro-benzothiazol-2-ylamino)-1-(2-methoxy-ethyl)-1H-benzoimidazole-5-carboxylic acid dimethylcarbamoylmethyl-amide], the fold induction at 5 µM worked out at 18.8.

As for `COCCNC(=O)c1ccc2c(c1)nc(Nc1nc3cc(F)c(F)cc3s1)n2C` [Example 37, 2-(5,6-Difluoro-benzothiazol-2-ylamino)-1-methyl-1H-benzoimidazole-5-carboxylic acid (2-methoxy-ethyl)-amide], the fold induction at 5 µM amounted to 16.4.

`Cn1c(Nc2nc3ccc(OC(F)(F)F)cc3s2)nc2cc(C(=O)NCCN3CCCC3=O)ccc21` [Example 329, 1-Methyl-2-(6-trifluoromethoxy-benzothiazol-2-ylamino)-1H-benzoimidazole-5-carboxylic acid [2-(2-oxo-pyrrolidin-1-yl)-ethyl]-amide] registered a fold induction at 5 µM of 52.2.
